Measured values published in patent US20060079453A1, “Hla binding peptides and their uses” (priority 2002, published 2006).
Like-named read-outs stand apart in the source and are kept apart here. No end group written: not given here.

Key:
Test in all cases: biochemical
Assay type in all cases: binding
HLA-DR DRB1*0401 (DR4) = HLA-DR DRB1*0401 (DR4) (Homo sapiens, UniProt P01903+P01911, A100K/A169T/F76Y/I96L/K127E/L162R/M171V/N62H/P40V/Q125Y/R42H/S133A/S149N/S66Y/V115G/V209L/W38E)
HLA-DR DRB1*0901 (DR9) = HLA-DR DRB1*0901 (DR9) (Homo sapiens, UniProt P01903+P01911, A100R/A103E/D57H/D86V/F55Y/F60I/F76Y/I96F/K127E/L162R/M171V/P40D/Q125H/Q99R/R33Q/R42F/S133A/S66N/T210M/V115G/W38K/Y107V/Y59G/Y89S)
HLA-DR DRB1*0101 (DR1) = HLA-DR DRB1*0101 (DR1) (Homo sapiens, UniProt P01903+P01911, A100R/D57E/F55L/F60I/F76Y/I96L/L162R/M171V/P40L/Q125E/R42F/V115G/Y59C)
HLA-DR DRB1*0802 (DR8) = HLA-DR DRB1*0802 (DR8) (Homo sapiens, UniProt P01903+P01911, A100R/A103L/A169T/F76Y/H45Y/I96F/K41T/L162R/M171V/P40S/Q125H/Q178H/Q39Y/Q99D/R218S/R42G/S66Y/V115G/W38E)
HLA-DR DRB1*0701 (DR7) = HLA-DR DRB1*0701 (DR7) (Homo sapiens, UniProt P01903+P01911, A100R/A102G/A103Q/D57E/D86V/E43K/F76Y/K127E/L162R/M171V/P40G/Q125H/Q99D/R33Q/R42Y/R54Q/S133A/S66F/T210M/V115G/Y107V/Y59L/Y89S)
HLA-DR DRB1*0301 (DR3) = HLA-DR DRB1*0301 (DR3) (Homo sapiens, UniProt P01903+P01911, A100K/A102G/A103R/A169T/F55Y/I96L/K41T/L162R/M171V/P40S/Q125H/Q178H/Q39Y/R42S/S66N/T106N/T262R/W38E/Y61H)
HLA-DR DRB1*1302 (DR13) = HLA-DR DRB1*1302 (DR13) (Homo sapiens, UniProt P01903+P01911, A100E/A169T/K41T/L162R/M171V/P40S/Q125H/Q178H/Q39Y/Q99D/R42S/S66N/T262R/V115G/W38E/Y61H); details: DRBI *1302
HLA-DR DRB5*0101 (DR51) = HLA-DR DRB5*0101 (DR51) (Homo sapiens, UniProt P01903+Q30154); details: DRB5 *0101
HLA-DR DRB1*1101 (DR11) = HLA-DR DRB1*1101 (DR11) (Homo sapiens, UniProt P01903+P01911, A100R/A169T/A87E/I96F/K41T/L162R/M171V/P40S/Q125H/Q178H/Q39Y/Q99D/R42S/S66Y/T262R/V115G/W38E); details: DRB1 *1101
HLA-DR DRB4*0101 (DR53) = HLA-DR DRB4*0101 (DR53) (Homo sapiens, UniProt P01903+P13762, G164S); details: DRB4 *0101
HLA-DR DRB1*1501 (DR15) = HLA-DR DRB1*1501 (DR15) (Homo sapiens, UniProt P01903+P01911); details: DRBI *1501

Chain of HLA-DR DRB1*1101 (DR11) (P01903 26-254 limits assumed, other chains not shown): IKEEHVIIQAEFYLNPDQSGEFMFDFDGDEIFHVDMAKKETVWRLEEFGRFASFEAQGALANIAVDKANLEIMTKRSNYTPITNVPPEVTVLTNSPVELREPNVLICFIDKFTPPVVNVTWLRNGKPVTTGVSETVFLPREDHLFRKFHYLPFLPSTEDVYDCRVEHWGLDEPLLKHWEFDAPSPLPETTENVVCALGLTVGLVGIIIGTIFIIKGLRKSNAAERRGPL
Chain of HLA-DR DRB1*1302 (DR13) (P01903 26-254 limits assumed, other chains not shown): as above
Chain of HLA-DR DRB1*0301 (DR3) (P01903 26-254 limits assumed, other chains not shown): as above

Compound | IC50 (HLA-DR DRB1*0401 (DR4); read-out: DRB1 *0401) | IC50 (HLA-DR DRB1*0901 (DR9); read-out: DRB1 *0901) | IC50 (HLA-DR DRB1*0101 (DR1); read-out: DRB1 *0101) | IC50 (HLA-DR DRB1*0802 (DR8); read-out: DRB1 *0802) | IC50 (HLA-DR DRB1*0701 (DR7); read-out: DRB1 *0701) | IC50 (HLA-DR DRB1*0301 (DR3); read-out: DRB1 *0301) | IC50 (HLA-DR DRB1*0401 (DR4); DRB1 *0401) | IC50 (HLA-DR DRB1*0901 (DR9); DRB1 *0901) | IC50 (HLA-DR DRB1*0301 (DR3)) | IC50 (HLA-DR DRB1*0802 (DR8)) | IC50 (HLA-DR DRB1*0701 (DR7); DRB1 *0701) | IC50 (HLA-DR DRB1*1302 (DR13)) | IC50 (HLA-DR DRB5*0101 (DR51)) | IC50 (HLA-DR DRB1*1101 (DR11)) | IC50 (HLA-DR DRB1*0101 (DR1); DRB1 *0101) | IC50 (HLA-DR DRB4*0101 (DR53)) | IC50 (HLA-DR DRB1*1501 (DR15))
MTNLAALFPPEGVS | > 40 µM | 22.8 µM | 0.024 µM | 39.2 µM | > 125 µM | – | – | – | – | – | – | – | – | – | – | – | –
SHDLMLLRLSEPAEL | 4.05 µM | 0.064 µM | 0.532 µM | 3.54 µM | 0.058 µM | 6.22 µM | – | – | – | – | – | – | – | – | – | – | –
KPAVYTKVVHYRICWI | – | 3.68 µM | 5 µM | 0.053 µM | 2.4 µM | – | – | – | – | – | – | – | – | – | – | – | –
CC[C@H](C)[C@H](N)C(=O)N[C@@H](CO)C(=O)N[C@H](C(=O)N[C@H](C(=O)N[C@@H](CC(N)=O)C(=O)N[C@@H](CCC(=O)O)C(=O)N[C@@H](CC(=O)O)C(=O)NCC(=O)N[C@@H](CC(N)=O)C(=O)N[C@@H](CCC(=O)O)C(=O)N[C@H](C(=O)N[C@@H](Cc1ccccc1)C(=O)N[C@@H](CC(N)=O)C(=O)N[C@H](C(=O)N[C@@H](CO)C(=O)O)[C@@H](C)O)[C@@H](C)CC)[C@@H](C)CC)[C@@H](C)CC | – | – | – | – | – | – | > 13 µM | > 52.3 µM | 0.559 µM | > 123 µM | > 23.1 µM | – | – | – | – | – | –
MSAMTNLAALFPPEG | 0.7 µM | > 187 µM | – | 73.9 µM | 36.1 µM | – | – | – | – | – | – | – | – | – | – | – | –
PRWLCAGALVLAGGF | – | – | – | – | – | – | > 20 µM | 1.44 µM | – | 26.5 µM | 0.766 µM | 20.2 µM | 40.8 µM | > 40 µM | 0.046 µM | 0.883 µM | –
CSCC[C@H](NC(=O)[C@H](CCC(N)=O)NC(=O)[C@H](CC(C)C)NC(=O)CNC(=O)[C@H](CO)NC(=O)[C@@H](NC(=O)[C@@H](NC(=O)[C@@H](NC(=O)[C@@H](N)CC(=O)O)[C@@H](C)O)[C@@H](C)O)C(C)C)C(=O)N[C@@H](C)C(=O)N[C@@H](CC(C)C)C(=O)N[C@@H](CC(=O)O)C(=O)N[C@H](C(=O)N[C@@H](Cc1ccc(O)cc1)C(=O)N[C@@H](CC(N)=O)C(=O)O)C(C)C | – | – | – | – | – | – | 4.42 µM | 2.88 µM | – | > 245 µM | 14.7 µM | 3.5 µM | > 200 µM | > 50 µM | – | 0.961 µM | 1.04 µM
IGYYDAQKLLEKMGG | – | – | – | – | – | – | 12.6 µM | 47.2 µM | – | 8.24 µM | > 83.3 µM | 5.73 µM | – | > 28.6 µM | – | 13.6 µM | 1.98 µM
FYNQHLTGSHLVEAL | 0.858 µM | 41.5 µM | 0.0092 µM | > 54.4 µM | 0.015 µM | 67.2 µM | – | – | – | – | – | – | – | – | – | – | –
PRSLQCVSLHLLSND | – | – | – | – | – | – | 16 µM | 28.3 µM | – | 6.11 µM | 2.22 µM | 3.73 µM | 46.4 µM | 11.1 µM | 1.11 µM | 0.544 µM | 1.6 µM
RGGMVFELANSIYLP | – | 0.033 µM | 0.01 µM | 8.68 µM | 0.041 µM | 37.1 µM | – | – | – | – | – | – | – | – | – | – | –
VEALYLVCGERGFLY | – | – | – | – | – | – | – | 3.06 µM | – | 10.6 µM | 5.35 µM | 1.87 µM | 5.15 µM | 55.4 µM | 0.014 µM | 0.019 µM | –
CC[C@H](C)[C@H](NC(=O)CNC(=O)[C@H](CCC(N)=O)NC(=O)[C@H](CC(C)C)NC(=O)[C@@H](NC(=O)CNC(=O)[C@H](CC(N)=O)NC(=O)[C@H](CS)NC(=O)[C@@H](NC(=O)[C@H](CC(C)C)NC(=O)[C@@H]1CCCN1C(=O)CN)C(C)C)C(C)C)C(=O)N[C@H](C(=O)N[C@@H](CO)C(=O)N[C@@H](Cc1c[nH]c2ccccc12)C(=O)O)[C@@H](C)O | – | – | – | – | – | – | 0.03 µM | 32.6 µM | – | 4.19 µM | 4.89 µM | 0.049 µM | 6.54 µM | 0.915 µM | 1.72 µM | 0.646 µM | 6.31 µM
CAWTIVRVEILRNFY | – | – | – | – | – | – | 0.158 µM | 0.757 µM | 3.56 µM | 43.7 µM | 0.746 µM | – | – | – | 0.066 µM | 0.152 µM | –
CC[C@H](C)[C@H](NC(=O)[C@H](CO)NC(=O)[C@H](CC(C)C)NC(=O)[C@@H](NC(=O)[C@H](CC(C)C)NC(=O)[C@H](CC(=O)O)NC(=O)[C@H](Cc1c[nH]c2ccccc12)NC(=O)[C@@H](N)CCSC)C(C)C)C(=O)N[C@@H](C)C(=O)N[C@@H](CC(C)C)C(=O)N[C@@H](CO)C(=O)N[C@H](C(=O)NCC(=O)N[C@@H](CS)C(=O)N[C@H](C(=O)O)[C@@H](C)O)C(C)C | – | – | – | – | – | – | 1.85 µM | 1.73 µM | – | 23 µM | 3.03 µM | 0.108 µM | 70.7 µM | 81.1 µM | 0.205 µM | 0.158 µM | 11.4 µM
CC[C@H](C)[C@H](NC(=O)[C@H](CCCCN)NC(=O)[C@H](C)NC(=O)[C@@H]1CCCN1C(=O)[C@H](CCC(=O)O)NC(=O)[C@H](CO)NC(=O)[C@H](CC(C)C)NC(=O)[C@H](CCCNC(=N)N)NC(=O)[C@H](CC(C)C)NC(=O)[C@H](CC(C)C)NC(=O)[C@H](CCSC)NC(=O)[C@H](CC(C)C)NC(=O)[C@H](CC(=O)O)NC(=O)[C@@H](N)Cc1c[nH]cn1)C(=O)N[C@H](C(=O)O)[C@@H](C)O | – | – | – | – | – | – | 3.06 µM | 0.043 µM | – | 0.544 µM | 0.109 µM | 0.00083 µM | – | – | 0.016 µM | 0.012 µM | –
LAHYDVLLSYPNK | – | 1.01 µM | 0.079 µM | 0.415 µM | 3.62 µM | 37.5 µM | – | – | – | – | – | – | – | – | – | – | –
VAQVRGGMVFELANS | 0.662 µM | 0.499 µM | – | > 98 µM | 4.45 µM | – | – | – | – | – | – | – | – | – | – | – | –
